Measurements reported in the supplement of paper PMC10307832.

Experiments:
Test in all cases: relative viability (nuclei count vs DMSO), 5 days (fraction); higher = more cells survive
[1] = compound: CC1=C(CC(=O)O)c2cc(F)ccc2/C1=C\c1ccc([S+](C)[O-])cc1 [Sulindac] + Cc1cc(Nc2cc(N3CCN(C)CC3)nc(Sc3ccc(NC(=O)C4CC4)cc3)n2)n[nH]1 [Tozasertib] (partner 0.1 µM)
Method in brief: (§1)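 Relative viability was taken as the ratio of nuclei in treated wells to nuclei in vehicle wells. Lung cancer cell lines in 1536-well plates received compounds by pin tool one day after seeding, either one drug alone or a fixed anchor-drug dose plus five library-drug doses (not always all listed) in √10 steps. Nuclei were counted on 4× images after 5 days of treatment, and values are medians of duplicate plates.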

[2] = compound: O=c1[nH]cc(F)c(=O)[nH]1 [5-Fluorouracil] + CC(C)C[C@H](NC(=O)[C@H](Cc1ccccc1)NC(=O)c1cnccn1)B(O)O [Bortezomib] (partner 0.002 µM)
Method in brief: as §1

[3] = compound: O=c1[nH]cc(F)c(=O)[nH]1 [5-Fluorouracil] + CS(=O)(=O)N1CCN(Cc2cc3nc(-c4cccc5[nH]ncc45)nc(N4CCOCC4)c3s2)CC1 [Pictilisib] (partner 1 µM)
Method in brief: as §1

[4] = compound: O=c1[nH]cc(F)c(=O)[nH]1 [5-Fluorouracil] + O=C(c1cc(Cc2n[nH]c(=O)c3ccccc23)ccc1F)N1CCN(C(=O)C2CC2)CC1 [Olaparib] (partner 8 µM)
Method in brief: as §1

Row | Cell Line | relative viability ([1]; first compound 0.08 µM) | relative viability ([1]; first compound 0.253 µM) | relative viability ([1]; first compound 0.8 µM) | relative viability ([1]; first compound 2.53 µM) | relative viability ([1]; first compound 8 µM) | relative viability ([2]; first compound 0.02 µM) | relative viability ([2]; first compound 0.2 µM) | relative viability ([2]; first compound 0.6325 µM) | relative viability ([2]; first compound 2 µM) | relative viability ([3]; first compound 0.02 µM) | relative viability ([3]; first compound 0.2 µM) | relative viability ([3]; first compound 0.6325 µM) | relative viability ([3]; first compound 2 µM) | relative viability ([4]; first compound 0.02 µM) | relative viability ([4]; first compound 0.2 µM) | relative viability ([4]; first compound 0.6325 µM) | relative viability ([4]; first compound 2 µM)
1 | PC-14 | 0.605 | 0.659 | 0.538 | 0.575 | 0.685 | 0.876 | 0.897 | 0.818 | 0.516 | 0.711 | 0.763 | 0.7 | 0.415 | 0.277 | 0.265 | 0.304 | 0.179
2 | HARA | 0.0822 | 0.0844 | 0.121 | 0.0886 | 0.103 | 1.17 | 1.15 | 1.08 | 1.03 | 0.562 | 0.518 | 0.321 | 0.373 | 0.775 | 1.01 | 0.623 | 0.845
3 | NCI-H23 | 0.292 | – | 0.323 | 0.354 | 0.535 | 1.07 | 1.34 | 0.598 | 0.309 | 0.565 | 0.53 | 0.374 | 0.251 | 0.317 | 0.373 | 0.256 | 0.229
4 | LCLC-97TM1 | 0.231 | 0.289 | 0.217 | 0.163 | 0.247 | 0.53 | 1.03 | 0.396 | 0.12 | 0.184 | 0.235 | 0.133 | 0.139 | 0.334 | 0.363 | 0.257 | 0.232
5 | LC-2-ad | 0.382 | 0.451 | 0.374 | 0.391 | 0.46 | 1.01 | 0.914 | 0.598 | 0.276 | 0.57 | 0.442 | 0.324 | 0.231 | 0.712 | 0.682 | 0.513 | 0.348
6 | NCI-H1666 | 0.624 | 0.627 | 0.593 | 0.562 | 0.648 | 0.878 | 0.475 | 0.39 | 0.39 | 0.659 | 0.293 | 0.292 | 0.285 | 0.861 | 0.67 | 0.647 | 0.625
7 | EKVX | 0.417 | 0.334 | 0.345 | 0.434 | 0.407 | 0.786 | – | 0.154 | 0.132 | – | – | 0.151 | 0.115 | 0.667 | 0.277 | – | 0.169
8 | SW 1573 | 0.183 | 0.144 | – | 0.172 | 0.163 | 1.08 | 1.1 | 0.922 | 0.638 | – | 0.597 | 0.519 | 0.328 | 0.477 | 0.625 | 0.416 | 0.262
